Assay results from paper PMC6934184, “Selective DNA-PKcs inhibition extends the therapeutic index of localized radiotherapy and chemotherapy” (The Journal of Clinical Investigation, 2019).

Biological target: T1, MAP3K14 (NIK) (Homo sapiens, UniProt Q99558)
T1 construct: purchased Thermo Fisher Scientific (Life Technologies) SelectScreen
Assay: SelectScreen LanthaScreen
Format: binding
Conditions: read-out: % displacement
Procedure, shortened: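 Percent values come from Thermo SelectScreen profiling of NU5455, combining activity and binding assays. CSF1R was run in Z'LYTE format at Km app ATP, and CAMK1 in Adapta format with ATP listed at 10.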

T1 sequence (Q99558 whole entry): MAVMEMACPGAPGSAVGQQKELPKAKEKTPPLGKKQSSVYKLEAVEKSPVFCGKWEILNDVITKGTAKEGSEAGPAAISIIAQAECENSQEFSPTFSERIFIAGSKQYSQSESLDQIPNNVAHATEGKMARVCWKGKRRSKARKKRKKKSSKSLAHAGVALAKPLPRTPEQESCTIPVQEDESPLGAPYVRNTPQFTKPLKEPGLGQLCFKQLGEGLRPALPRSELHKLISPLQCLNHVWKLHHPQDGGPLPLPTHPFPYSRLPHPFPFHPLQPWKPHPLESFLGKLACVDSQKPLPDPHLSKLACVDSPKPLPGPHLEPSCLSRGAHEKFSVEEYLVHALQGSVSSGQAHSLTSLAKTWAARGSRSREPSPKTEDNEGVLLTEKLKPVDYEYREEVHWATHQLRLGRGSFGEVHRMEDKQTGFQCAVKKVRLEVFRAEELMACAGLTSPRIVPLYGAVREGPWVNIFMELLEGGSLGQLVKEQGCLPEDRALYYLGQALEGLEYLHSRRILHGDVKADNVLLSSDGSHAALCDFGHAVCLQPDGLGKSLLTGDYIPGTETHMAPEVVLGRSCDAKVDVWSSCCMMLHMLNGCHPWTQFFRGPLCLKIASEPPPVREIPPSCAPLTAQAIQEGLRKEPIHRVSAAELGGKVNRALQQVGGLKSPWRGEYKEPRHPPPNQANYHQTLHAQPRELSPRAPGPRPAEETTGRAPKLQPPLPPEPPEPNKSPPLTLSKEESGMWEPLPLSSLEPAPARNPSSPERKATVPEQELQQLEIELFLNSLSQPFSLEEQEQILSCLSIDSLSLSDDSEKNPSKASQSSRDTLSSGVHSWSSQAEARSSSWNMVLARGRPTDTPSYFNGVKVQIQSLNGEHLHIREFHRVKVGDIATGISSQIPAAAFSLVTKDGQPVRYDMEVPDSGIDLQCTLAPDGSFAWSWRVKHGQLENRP

Work on `CN(C(=O)CN1CCOCC1)c1ccc2sc3c(-c4cccc5c(=O)cc(N6CC7CCC(C6)O7)oc45)cccc3c2c1` [NU5455] yielded an inhibition at 1 µM of -0.5%.
